The star is where a group is joined. Palmitoyl = CCCCCCCCCCCCCCCC(=O)*
What was measured:
[1] = tested on: HaCaT (human keratinocyte line); test: ELISA assay of hyaluronic acid on HaCaT culture; format: cell-based; settings: 72 hours of contact
Method: This same type of test was carried out on a HaCaT culture (human keratinocyte line), but without the irradiation step, with a contact time of 72 hours between the cells and the peptide of the invention and an ELISA assay of hyaluronic acid on the culture medium.

[2] = tested on: NHKs exposed to UVB; test: ELISA of pro-inflammatory mediators (PGE2 and IL-6) on NHK exposed to UVB; format: cell-based, human
Method: 1.1—Immuno-Enzymatic Assays (ELISA) on Normal Human Keratinocyte (NHK) Culture Principle: NHKs in culture and at confluence are brought into contact with the peptide of the invention at different concentrations for 24 hours in a medium allowing their survival. Then the cell layers are irradiated with UVB (light stress, intended to mimic an experimental cutaneous micro-inflammation) in a physiological buffer and again brought into contact with the products to be tested for 24 hours. At the end of this incubation, the culture media are assayed by ELISA to evaluate the amounts of pro-inflammatory mediators (PGE2 and IL-6) produced by these cells in response to irradiation. The results are compared to the control. A decrease in the amount of mediators produced will be interpreted as a limitation of damages related to inflammation. An estimate of the cell number is made on the attached layer to reduce the assay results to the number of cells. A study of variances and a Student t test are carried out to judge the significance of the results.

[3] = tested on: normal human keratinocytes (NHK); test: DNA Microarray on NHK culture; format: cell-based; settings: 9 ppm, 24 hours, confluent NHKs
Method: 1.2—DNA Microarray-Technology NHK Culture Principle: the peptide according to the invention at 9 ppm is brought into contact for 24 hours with confluent NHKs (versus control case). Then the NHKs layers are rinsed, and the cells are crushed to extract their mRNA. These mRNAs are then converted into DNA sequences which are analyzed after deposition on DNA chips and amplification by a method similar to qRT-PCR (Real-time Quantitative Reverse Transcription Polymerase Chain Reaction). The mRNA variations due to the peptide are compared to the control case (the solvent of the peptide). The results are expressed as an expression ratio between the treated case and the control case. A ratio greater than 2 is considered to be induction of gene expression ([…]).

[4] = tested on: P. acnes (strain ATCC6919); test: Biofilm formation of P. acnes (crystal violet); format: cell-based, Propionibacterium acnes; settings: 3 days
Method: The adhesion of 10^6 CFU/mL of P. acnes (strain ATCC6919) to a surface for 72 hours in an appropriate medium was evaluated. At the end of the contact plus more or less the peptide, the quantity of isolated cells, not attached, was estimated by an OD at 600 nm. The biofilm and the bacteria still attached were labeled with crystal violet solution for 20 min. After rinsing, the quantity of crystal violet remaining on the biofilms was assayed, after extraction, also with a measurement of OD at 600 nm.

[5] = tested on: Propionibacterium acnes; test: Propionibacterium acnes growth inhibition test (time to OD of 1); format: cell-based; settings: control 26 hours
Method: 1.4—Propionibacterium acnes Growth Inhibition Test Principle: Suspensions of Propionibacterium acnes of equivalent density are cultured in a suitable medium in the presence (test case) or absence (control case) of the preferred peptide according to the invention, in anaerobic condition, at 37° C. Samples are taken at regular intervals to measure the OD at 600 nm, to follow the growth of the bacterial population over time. The growth curve of each culture can therefore be established.

[6] = tested on: S. epidermidis; test: S. epidermidis growth (selectivity test); format: cell-based; settings: 6 ppm and 12 ppm, 48 hours
Method: S. epidermidis was inoculated in an appropriate medium and its growth was followed over time. The peptide according to the invention (6 ppm and 12 ppm) was tested on these cells for 48 hours in comparison with the control case (n=6).

[7] = tested on: P. acnes; test: Biofilm stability of P. acnes (peptide added 24 hours after start of culture); format: cell-based, Propionibacterium acnes; settings: peptide added 24 hours after the start of the culture
Method: The effect of the peptide on the biofilm stability was also evaluated, the peptide being only added 24 hours after the start of the P. acnes culture.

[8] = tested on: P. acnes; test: Persistent effect on P. acnes growth after removal of the peptide; format: cell-based, Propionibacterium acnes; settings: 48 hours of contact, then fresh medium without peptide
Method: This study was also carried out to follow the persistent effect of the peptide according to the invention on P. acnes, and to see if the inhibition can be quickly lifted in the absence of the peptide. The peptide was brought into contact with the cells from the start, as before. After 48 hours of contact and evaluation of the quantity of cells, the cells of all the cases were centrifuged and returned to a fresh medium without solvent or peptide, all the cases having the same quantity of cells. The growth was then assessed again.

For “palmitoyl-lysyl-threonyl-serine-lysyl-serine (Palmitoyl-KTSKS-OH; SMILES CCCCCCCCCCCCCCCC(=O)N[C@@H](CCCCN)C(=O)N[C@H](C(=O)N[C@@H](CO)C(=O)N[C@@H](CCCCN)C(=O)N[C@@H](CO)C(=O)O)[C@@H](C)O) [Pal-KTSKS]”, the “Secretion of hyaluronic acid, Variation %/non treated cells” value (“Secretion … Variation %/non treated cells” for short) ([1]; 6 ppm) was “+33%; p < 0.01”, the “Secretion … Variation %/non treated cells” value ([1]; 8 ppm) was “+42%; p < 0.01” and the “Secretion … Variation %/non treated cells” value ([1]; 10 ppm) was “+62%; p < 0.01”. The “Secretion … Variation %/non treated cells” value ([1]; 15 ppm) was “+107%; p < 0.01”, the “IL6 secretion, variation compared to the control” value ([2]; 3 ppm) was −4% (nsd) and the “PGE2 secretion, variation compared to the control” value ([2]; 3 ppm) was “+1% (nsd)”. The “IL6 secretion, variation compared to the control” value ([2]; 10 ppm) was −33% (p < 0.01), the “PGE2 secretion, variation compared to the control” value ([2]; 10 ppm) was −41% (p < 0.01) and the “IL6 secretion, variation compared to the control” value ([2]; 15 ppm) was −65% (p < 0.01). The “PGE2 secretion, variation compared to the control” value ([2]; 15 ppm) was −63% (p < 0.01), the “Expressed gene ABHD5 (1-acylglycerol-3-phosphate O-acyltransferase): variation compared to the control” value [3] was “×2.14” and the “Expressed gene ANXA1 (Annexin A1): variation compared to the control” value [3] was “×3.05”. The “Expressed gene AQP5 (Aquaporin 5): variation compared to the control” value [3] was “×3.11”, the “Expressed gene CALML5 (Calmodulin-like protein-5): variation compared to the control” value [3] was “×10.73” and the “Expressed gene CERS3 (Ceramide synthase 3): variation compared to the control” value [3] was “×2.38”. For the same substance, the “Expressed gene CGNL1 (Cingulin-like protein-1): variation compared to the control” value [3] was “×26.40”, the “Expressed gene CLDN7 (Claudin): variation compared to the control” value [3] was “×7.24” and the “Expressed gene CLDN23 (Claudin): variation compared to the control” value [3] was “×2.69”. The “Expressed gene CRNN (Cornulin): variation compared to the control” value [3] was “×258.60”, the “Expressed gene DEFB1 (Beta-1-defensin): variation compared to the control” value [3] was “×4.48” and the “Expressed gene DEFB103B (Human beta defensin-3): variation compared to the control” value [3] was “×337.87”. The “Expressed gene DMKN (Dermokin): variation compared to the control” value [3] was “×3.58”, the “Expressed gene ELOVL4 (3-keto acyl-CoA synthase): variation compared to the control” value [3] was “×5.06” and the “Expressed gene FLG2 (Filaggrine-2): variation compared to the control” value [3] was “×197”. For the same substance, the “Expressed gene HMOX1 (Heme Oxygenase-1): variation compared to the control” value [3] was “×29.27”, the “Expressed gene IL37 (Interleukin-37): variation compared to the control” value [3] was “×7.82” and the “Expressed gene IVL (Involucrin): variation compared to the control” value [3] was “×8.43”. The “Expressed gene KLK5 (Kallikrein 5): variation compared to the control” value [3] was “×2.2”, the “Expressed gene LCE2C: variation compared to the control” value [3] was “×37.7” and the “Expressed gene LCE3A (Late Cornified Envelop Protein): variation compared to the control” value [3] was “×306.86”. The “Expressed gene LCE3B: variation compared to the control” value [3] was “×324.01”, the “Expressed gene LCE3D: variation compared to the control” value [3] was “×1454.67” and the “Expressed gene LOR (Loricrin): variation compared to the control” value [3] was “×193”. The “Expressed gene OCLN (Occludin): variation compared to the control” value [3] was “×8.65”, the “Expressed gene PADI-1 (Peptidyl Arginin Deaminase): variation compared to the control” value [3] was “×185.61” and the “Expressed gene PI3 (Elafin): variation compared to the control” value [3] was “×7.73”. For the same substance, the “Expressed gene PRSS8 (Serine protease-8): variation compared to the control” value [3] was “×2.74”, the “Expressed gene RNASE7 (RNase 7): variation compared to the control” value [3] was “×40.85” and the “Expressed gene S100A7 (Psoriasin): variation compared to the control” value [3] was “×15.73”. For the same substance, the “Expressed gene SPINK5 (Serine protease inhibitor Kazal-type 5): variation compared to the control” value [3] was “×3.77”, the “Expressed gene SPRR1A (Small Proline Rich Region Protein): variation compared to the control” value [3] was “×2.00” and the “Expressed gene SPRR2A: variation compared to the control” value [3] was “×24.09”. For the same substance, the “Expressed gene SPRR2B: variation compared to the control” value [3] was “×451.61”, the “Expressed gene SPRR2C: variation compared to the control” value [3] was “×15.35” and the “Expressed gene SPRR2D: variation compared to the control” value [3] was “×23.97”. For the same substance, the “Expressed gene SPRR2E: variation compared to the control” value [3] was “×12.48”, the “Expressed gene SPRR2F: variation compared to the control” value [3] was “×15.29” and the “Expressed gene SPRR2G: variation compared to the control” value [3] was “×687.57”. The “Expressed gene SPRR3: variation compared to the control” value [3] was “×48.62”, the “Expressed gene SPRR4: variation compared to the control” value [3] was “×23.16” and the “Expressed gene TGM1 (Transglutaminase-1): variation compared to the control” value [3] was “×4.66”. The “Expressed gene TGM5 (Transglutaminase-5): variation compared to the control” value [3] was “×27.1”, the “Expressed gene TIMP1 (Metallopeptidase inhibitor 1): variation compared to the control” value [3] was “×3.68” and the “Expressed gene TIMP2 (Metallopeptidase inhibitor 2): variation compared to the control” value [3] was “×5.96”. For the same substance, the “Expressed gene TJP1 (Tight junction protein ZO-1): variation compared to the control” value [3] was “×2.02”, the “Formation of the biofilm by P. acnes, variation vs control” value ([4]; 6 ppm) was −98% and the “Formation of the biofilm by P. acnes, variation vs control” value ([4]; 12 ppm) was −99%. The “Growth of P. acnes: time required to reach an OD of 1” value (shortened to “Growth of P. acnes: time required”) ([5]; 6 ppm of peptide) was 54 h, the “Growth of P. acnes: time required” value ([5]; 9 ppm of peptide) was 103 h and the “Growth of P. acnes: time required” value ([5]; 12 ppm of peptide) was 135 h. The “Growth of S. epidermidis relative to control” value [6] was “slight, temporary slowdown in growth”, the “Reduction of the biofilm formed at 72 hours vs control (biofilm stability)” value ([7]; 6 ppm) was 89% and the “Reduction of the biofilm formed at 72 hours vs control (biofilm stability)” value ([7]; 12 ppm) was 93%. The “Persistent effect on P. acnes growth once the peptide is removed” value [8] was “no persistent effect”.

From patent publication US20230255873A1, “COSMETIC OR DERMATOLOGICAL PEPTIDE-BASED TREATMENT OF THE SKIN AND ITS INTEGUMENTS” (Sederma, priority 2020, published 2023)
